According to patent US8716226B2, “3,5 phenyl-substituted beta amino acid derivatives as integrin antagonists” (Saint Louis University, priority 2012, dated 2014):

Target: T1, αvβ6 (Homo sapiens, UniProt P06756+P18564)
T1 construct: HT-29 cells (American Type Culture Collection, Manassas, Va.), which naturally express αvβ6; endogenous in cells; host or cells: HT-29 (human colon adenocarcinoma, ATCC)
Assay: HT-29 cell adhesion assay for αvβ6 function
Type: cell-based
Details: HT-29 cells, adhesion to human LAP
Description: HT-29 Cell Adhesion Assay for αvβ6 Function.
Purified human LAP protein (R&D Systems, Inc) diluted to 0.2 μg/ml in TS buffer (25 mM Tris 7.4, 150 mM NaCl) was added to wells (100 μl/well) of a 96-well microtiter plate (Immulon 2HB 96-well; VWR Scientific) and incubated overnight at 4° C. The solution in each well was then replaced with 200 μl of blocking buffer (TS with 1% bovine serum albumin), and the plate incubated for 1 hr at 37° C. Compounds were diluted in test tubes to 2× the peak testing concentration in cell adhesion buffer consisting of Hanks Buffered Salts Solution (HBSS, cation-free, Sigma), 0.1% bovine serum albumin, 25 mM HEPES, and 200 μM MnCl2. […] The cells were washed with the cell adhesion buffer, counted using a hemocytometer, centrifuged and resuspended in cell adhesion buffer at 4×10^6 cells/ml. […] Remaining attached cells were detected by addition of 100 μl/well p-nitrophenylphosphate (Sigma) solution (15 mg tablet dissolved in 25 ml 50 mM NaAcetate, pH5; 0.5% Triton-X-100), incubation for 30 min at 37° C., and then addition of 50 μl/well 1N NaOH to stop the enzyme reaction. Plates were read by colorimetric detection at 405 nm wavelength using a Tecan Safire II plate reader. Concentration-response curves were constructed by non-linear regression (best fit) analysis, and IC50 values were calculated for each compound. […]

T1 sequence (P06756 31-889 limits assumed): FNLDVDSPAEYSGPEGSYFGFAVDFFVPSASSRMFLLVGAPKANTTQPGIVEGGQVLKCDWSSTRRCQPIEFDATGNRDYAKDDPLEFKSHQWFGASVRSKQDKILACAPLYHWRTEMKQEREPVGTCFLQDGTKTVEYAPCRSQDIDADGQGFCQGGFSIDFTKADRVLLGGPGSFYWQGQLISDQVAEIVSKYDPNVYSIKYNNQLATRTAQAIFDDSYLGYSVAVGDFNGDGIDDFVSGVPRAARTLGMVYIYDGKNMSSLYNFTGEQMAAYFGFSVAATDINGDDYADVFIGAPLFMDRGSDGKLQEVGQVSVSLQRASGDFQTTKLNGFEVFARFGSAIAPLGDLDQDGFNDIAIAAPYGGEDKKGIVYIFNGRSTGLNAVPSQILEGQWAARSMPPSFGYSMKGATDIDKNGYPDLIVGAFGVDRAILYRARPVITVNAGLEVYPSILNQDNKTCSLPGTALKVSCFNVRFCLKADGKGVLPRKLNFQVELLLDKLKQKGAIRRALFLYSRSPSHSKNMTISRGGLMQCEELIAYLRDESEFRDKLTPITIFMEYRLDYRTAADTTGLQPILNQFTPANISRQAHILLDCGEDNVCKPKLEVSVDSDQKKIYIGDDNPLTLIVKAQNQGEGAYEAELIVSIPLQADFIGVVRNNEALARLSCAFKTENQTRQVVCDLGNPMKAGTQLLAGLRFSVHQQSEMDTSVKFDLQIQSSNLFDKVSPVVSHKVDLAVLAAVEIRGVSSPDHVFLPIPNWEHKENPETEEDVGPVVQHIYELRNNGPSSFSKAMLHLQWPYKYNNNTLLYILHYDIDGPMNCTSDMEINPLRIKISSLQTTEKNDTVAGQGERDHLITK
T1 sequence (P06756 891-1048 partner limits assumed): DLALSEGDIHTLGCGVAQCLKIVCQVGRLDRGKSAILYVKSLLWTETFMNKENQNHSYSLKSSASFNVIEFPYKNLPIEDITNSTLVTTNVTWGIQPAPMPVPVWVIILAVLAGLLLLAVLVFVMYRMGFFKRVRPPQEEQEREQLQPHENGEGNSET
T1 sequence (P18564 22-788): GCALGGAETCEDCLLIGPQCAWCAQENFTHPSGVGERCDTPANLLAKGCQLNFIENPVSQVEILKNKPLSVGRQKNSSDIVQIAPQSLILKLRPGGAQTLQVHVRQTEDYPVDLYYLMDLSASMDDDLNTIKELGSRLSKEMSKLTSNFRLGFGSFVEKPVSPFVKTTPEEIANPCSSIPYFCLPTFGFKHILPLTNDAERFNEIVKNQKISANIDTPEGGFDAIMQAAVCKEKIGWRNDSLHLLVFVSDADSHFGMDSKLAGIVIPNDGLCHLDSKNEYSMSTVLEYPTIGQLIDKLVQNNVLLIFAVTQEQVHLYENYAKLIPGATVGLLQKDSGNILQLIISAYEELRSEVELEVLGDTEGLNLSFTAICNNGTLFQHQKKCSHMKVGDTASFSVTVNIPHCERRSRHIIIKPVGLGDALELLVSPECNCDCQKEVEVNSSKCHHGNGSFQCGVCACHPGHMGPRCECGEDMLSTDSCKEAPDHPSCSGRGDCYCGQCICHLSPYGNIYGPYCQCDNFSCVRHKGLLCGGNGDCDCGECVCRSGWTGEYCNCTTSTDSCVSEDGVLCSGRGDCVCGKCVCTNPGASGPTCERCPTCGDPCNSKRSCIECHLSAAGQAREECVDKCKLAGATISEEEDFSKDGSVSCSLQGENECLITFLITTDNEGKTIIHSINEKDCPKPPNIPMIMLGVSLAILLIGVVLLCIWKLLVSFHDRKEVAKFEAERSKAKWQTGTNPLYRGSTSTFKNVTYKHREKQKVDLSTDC

CC(C)(C)c1cc(Br)cc([C@H](CC(=O)O)NC(=O)CNC(=O)c2cc(O)cc(NC3=NCC(O)CN3)c2)c1 (stereo partly drawn) [Example 1, (3S)—N-[3-hydroxy-5-[(1,4,5,6-tetrahydro-5-hydroxy-2-pyrimidinyl)amino]benzoyl]glycyl-3-(3-bromo-5-tert-butylphenyl)-β-alanine]
IC50: 1.5 nM
